We go through 18 compounds from PMC6278313.

Substitutions are numbered along the chain they refer to. Where two headings read alike, the source gives them in different places. Some results are limits rather than exact numbers.

For series [1], the target named is T1, COX-1 (Homo sapiens, UniProt P23219). The series can be described thus: COX-1 inhibition, human whole blood (Thromboxane B2 EIA).
Method: (§1) Thromboxane B2 EIA kit (COX-1) and Prostaglandin E2 EIA Kit (COX-2) were purchased from Cayman Chemicals, USA [45]. Blood from non-treated rhesus monkey and healthy human subjects was used with these ELISA kits to establish the inhibitory potencies (IC50’s) of test compounds for these enzymes [46]. Thromboxane, the product of COX-1, and prostaglandin E2, the product of COX2, were measured using 96-well plates and a UV spectrophotometer. The concentration-inhibition curves were fitted into a 4-parameter non-linear regression model in GraphPad Prism to calculate the IC50 of each test compound.
For series [2], the system named is all tested receptors, transporters, and binding sites. The series can be described thus: NIMH-PDSP radioligand binding screen, whole panel. The note with it: 10 μM; except the sites named for 17 and 27.
In series [3] the target is T2, COX-2 (Macaca mulatta, UniProt F7BWZ9).
T2 sequence (F7BWZ9 18-604): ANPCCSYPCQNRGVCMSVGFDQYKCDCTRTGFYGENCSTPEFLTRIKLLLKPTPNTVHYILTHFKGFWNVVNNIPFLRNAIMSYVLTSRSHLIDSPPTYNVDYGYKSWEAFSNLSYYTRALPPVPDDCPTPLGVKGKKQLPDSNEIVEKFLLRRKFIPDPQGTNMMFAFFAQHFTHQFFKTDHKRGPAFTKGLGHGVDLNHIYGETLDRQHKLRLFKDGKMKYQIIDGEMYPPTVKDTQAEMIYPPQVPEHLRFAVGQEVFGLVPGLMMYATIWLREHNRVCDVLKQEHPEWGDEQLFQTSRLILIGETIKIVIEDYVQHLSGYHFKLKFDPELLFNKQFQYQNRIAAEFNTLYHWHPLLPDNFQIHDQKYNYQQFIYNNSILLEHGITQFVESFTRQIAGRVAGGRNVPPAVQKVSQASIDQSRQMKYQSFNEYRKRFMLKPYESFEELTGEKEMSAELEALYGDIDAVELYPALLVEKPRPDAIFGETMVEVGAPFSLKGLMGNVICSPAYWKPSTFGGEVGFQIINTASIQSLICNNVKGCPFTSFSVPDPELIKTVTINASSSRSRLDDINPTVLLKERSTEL
The series can be described thus: COX-2 inhibition, monkey whole blood (Prostaglandin E2 EIA).
Method: as §1

The target of series [4] is T3, COX-2 (Homo sapiens, UniProt P35354).
T3 construct: endogenous in cells; host or cells: fresh human whole blood
T3 sequence (P35354 18-604): T2 sequence (F7BWZ9 18-604) with Y7H, L49F, V101A, F150L, T163S, K191N, D208A, H211R, N363T, R570G
The series can be described thus: COX-2 inhibition, human whole blood (Prostaglandin E2 EIA). In kind it is cell-based.

Series [5] concerns the target T4, COX-1 (Macaca mulatta, UniProt F6S984).
T4 sequence (F6S984 25-599): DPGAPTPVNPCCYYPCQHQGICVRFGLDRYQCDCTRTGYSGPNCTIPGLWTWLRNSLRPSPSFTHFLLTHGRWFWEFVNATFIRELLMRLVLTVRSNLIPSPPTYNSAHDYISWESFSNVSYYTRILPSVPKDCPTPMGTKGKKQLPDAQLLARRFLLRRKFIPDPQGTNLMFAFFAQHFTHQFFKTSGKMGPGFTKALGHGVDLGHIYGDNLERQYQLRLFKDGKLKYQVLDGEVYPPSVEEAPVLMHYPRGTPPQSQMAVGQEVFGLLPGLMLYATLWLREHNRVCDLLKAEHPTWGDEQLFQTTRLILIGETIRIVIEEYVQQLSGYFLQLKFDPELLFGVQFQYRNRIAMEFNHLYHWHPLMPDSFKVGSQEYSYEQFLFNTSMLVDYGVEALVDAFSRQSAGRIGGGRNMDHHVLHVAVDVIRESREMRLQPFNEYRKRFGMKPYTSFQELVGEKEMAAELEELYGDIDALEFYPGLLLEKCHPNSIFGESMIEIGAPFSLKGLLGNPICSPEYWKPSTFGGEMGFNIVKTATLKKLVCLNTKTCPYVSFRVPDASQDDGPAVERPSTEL
Put plainly: COX-1 inhibition, monkey whole blood (Thromboxane B2 EIA).
Method: as §1

In series [6] the test system is human COX-2. The settings on record: cited from earlier work; for Selectivity vs. COX-1: human whole blood, COX-2 over COX-1.
Series [7] concerns the target T1, COX-1. The arrangement: endogenous in cells; host or cells: fresh human whole blood. The note with it: footnote c; SE <15%; read-out: IC50 COX-1 Human WB (literature); cited from earlier work.
For series [8], the system named is COX-2. The note with it: cited from earlier work.
The target in series [9] is COX-2. The arrangement: method as in literature cited in the text (18-30). The note with it: cited from earlier work.
A short description of series [10]: Measured logD of radioligands (n-octanol / sodium phosphate buffer). In kind it is physicochemical. The note with it: n-octanol / sodium phosphate buffer 0.1 M pH 7.4; γ-counter. The procedure:
cLogD (at pH 7.4) values were computed with Pallas for Windows software version 3.8 in default mode (CompuDrug International; Bal Harbor, FL, USA). The logD values of [^11C]17, [^18F]20, and [d2-^18F]27 were measured by a method that we have described previously. The radioactivity contents in the n-octanol and sodium phosphate buffer (0.1 M; pH 7.4) phases were determined with a γ-counter.

[11] abbreviates: mean ± SD, triplicate unless d n = 1, e n = 2, read-out: IC50 COX-2 Human WB.
[12] abbreviates: Table 1, human whole blood COX-2, SEM <15%, read-out: HWB IC50.
Setting [13] is: footnote c, SE <15%, read-out: IC50 COX-2 Human WB (literature) (converted).
Where [14] appears, read: Chart 1, PET in vivo, ref literature cited in the text (18-30).
Where [15] appears, read: Chart 1, ref literature cited in the text (18-30).

T1 sequence (P23219 24-599): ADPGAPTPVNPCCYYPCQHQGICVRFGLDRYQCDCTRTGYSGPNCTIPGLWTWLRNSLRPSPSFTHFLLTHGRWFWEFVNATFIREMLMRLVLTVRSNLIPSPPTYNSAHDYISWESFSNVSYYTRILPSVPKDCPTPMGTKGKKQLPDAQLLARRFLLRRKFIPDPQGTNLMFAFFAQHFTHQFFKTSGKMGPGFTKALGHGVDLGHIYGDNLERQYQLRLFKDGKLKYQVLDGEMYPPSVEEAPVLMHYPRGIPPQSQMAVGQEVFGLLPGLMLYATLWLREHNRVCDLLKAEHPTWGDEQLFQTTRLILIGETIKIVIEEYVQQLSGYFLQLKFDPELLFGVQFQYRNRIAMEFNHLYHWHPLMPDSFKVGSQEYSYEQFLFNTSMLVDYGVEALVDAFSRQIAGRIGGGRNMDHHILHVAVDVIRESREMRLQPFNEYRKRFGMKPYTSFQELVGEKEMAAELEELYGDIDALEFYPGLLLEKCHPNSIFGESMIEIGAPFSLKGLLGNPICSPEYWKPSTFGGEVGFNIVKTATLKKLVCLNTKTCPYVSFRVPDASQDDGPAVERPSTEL

Usually IC50 stands for the midpoint of a concentration-inhibition curve. Usually melting point stands for the temperature of the solid-liquid transition. `CCOc1cc(NCc2cccs2)nc(-c2ccc(S(C)(=O)=O)cc2)n1` [Compound 18, 6-Ethoxy-2-(4-(methylsulfonyl)phenyl)-N-(thiophen-2-ylmethyl)pyrimidin-4-amine] had a melting point of 169.2 to 170.4 °C. Further, the IC50 in series [1] was greater than 10000 nM. In addition, the “inhibition of radioligand binding at all tested receptors, transporters, and binding sites” value in [2] is “less than 50%”.

`CCSc1cc(NCc2cccs2)nc(-c2ccc(S(C)(=O)=O)cc2)n1` [Compound 19, 6-Thioethyl-2-(4-(methylsulfonyl)phenyl)-N-(thiophen-2-ylmethyl)pyrimidin-4-amine] gave a melting point of 160 to 162.1 °C. The same compound returned an IC50 in series [3] of 52.3 ± 0.01 nM. For the same compound, the IC50 in series [4] (setting [11]) came out at 3.52 ± 0.43 nM. In addition, the IC50 in [5] is greater than 1000 nM. The IC50 in series [1] was greater than 1000 nM. Also, in series [6] (setting [12]), the IC50 is 1.2 nM. For the same compound, in series [6] (setting [13]), the IC50 is 1.2 nM. For the same compound, the “Selectivity vs. COX-1” value in series [6] is listed as greater than 8403. In addition, the IC50 in [7] was greater than 10000 nM.

Regarding `CS(=O)(=O)c1ccc(-c2nc(NCc3cccs3)cc(OCCF)n2)cc1` [Compound 20, 6-(2-Fluoroethoxy)-2-(4-(methylsulfonyl)phenyl)-N-(thiophen-2-ylmethyl)pyrimidin-4-amine], the melting point was in the range of 147.7 to 149.2 °C. Further, the IC50 in [3] came out at 1.28 nM. Moreover, the IC50 in series [4] (setting [11]) was 1.9 nM.

`CSc1cc(NCc2cccs2)nc(-c2ccc(S(C)(=O)=O)cc2)n1` [Compound 21, 6-Thiomethyl-2-(4-(methylsulfonyl)phenyl)-N-(thiophen-2-ylmethyl)pyrimidin-4-amine] came in with a melting point of 159.1 to 160.4 °C. Moreover, the concentration for half-maximal inhibition (IC50) in series [3] was determined as 4.83 ± 2.31 nM. Moreover, in series [4] (setting [11]), the IC50 was determined as 2.65 ± 0.45 nM. The compound further returned an IC50 in [5] greater than 1000 nM. In addition, the IC50 in series [1] was greater than 1000 nM.

As to `COc1cc(NCc2ccccc2)nc(-c2ccc(S(C)(=O)=O)cc2)n1` [Compound 22, N-Benzyl-6-methoxy-2-(4-(methylsulfonyl)phenyl)pyrimidin-4-amine], the melting point was in the range of 133.4 to 134.6 °C. Inhibition in series [3] was half-maximal at 14.6 ± 10.1 nM (IC50). The compound also gave an IC50 in [4] of 7.35 ± 1.35 nM. Moreover, the IC50 in series [5] is greater than 1000 nM. Also, the IC50 in series [1] was greater than 1000 nM. Moreover, the “Selectivity vs. COX-1” value in series [6] is recorded as >19,646. The IC50 in [6] (read-out: HWB IC50) is 5.1 nM. Moreover, in series [6] (read-out: IC50 COX-2 Human WB (literature) (converted)), the IC50 was 5.1 nM. Moreover, the IC50 in [7] is greater than 100000 nM.

Compound `CS(=O)(=O)c1ccc(-c2nc(Cl)cc(NCc3ccccc3)n2)cc1` [Compound 23, N-Benzyl-6-chloro-2-(4-(methylsulfonyl)phenyl)pyrimidin-4-amine] had a melting point of 130.4 to 131.4 °C. In addition, the IC50 in [7] is greater than 100000 nM.

For the compound `CS(=O)(=O)c1ccc(-c2nc(O)cc(NCc3ccccc3)n2)cc1` [Compound 24, 6-(Benzylamino)-2-(4-(methylsulfonyl)phenyl)pyrimidin-4-ol], the melting point is 287.9 to 289.2 °C. In addition, the IC50 in [3] was greater than 1000 nM. Also, the IC50 in series [5] was greater than 1000 nM. In series [1], this compound returned an IC50 greater than 1000 nM. In addition, in series [6], the “inhibitory potency for COX-2” value is listed as “low inhibitory potency”. Further, the IC50 in series [7] is greater than 100000 nM.

`CS(=O)(=O)c1ccc(-c2nc(Cl)cc(NCc3cccs3)n2)cc1` [Compound 25, 6-Chloro-2-(4-(methylsulfonyl)phenyl)-N-(thiophen-2-ylmethyl)pyrimidin-4-amine] yielded a melting point of 170 to 171.2 °C. This compound also yielded an IC50 in series [1] greater than 10000 nM. The IC50 in [6] (setting [12]) was 1.2 nM. In addition, in series [6] (setting [13]), the 50% inhibitory concentration (IC50) is 1.2 nM. The IC50 in series [7] was greater than 100000 nM.

In turn, `CS(=O)(=O)c1ccc(-c2nc(O)cc(NCc3cccs3)n2)cc1` [Compound 26, 2-(4-(Methylsulfonyl)phenyl)-6-(thiophen-2-yl-methylamino)pyrimidin-4-ol] registered a melting point of 261.7 to 263.2 °C. Also, in [6], the “inhibitory potency for COX-2” value is “low inhibitory potency”. In series [7], the IC50 is greater than 100000 nM.

Turning to `CS(=O)(=O)c1ccc(-c2nc(F)cc(NCc3cccs3)n2)cc1` [Compound 29, 6-Fluoro-2-(4-(methylsulfonyl)phenyl)-N-(thiophen-2-ylmethyl)pyrimidin-4-amine], the melting point is 130.4 to 131.4 °C. The IC50 in series [4] (setting [11]) amounted to 2.5 nM.

On to `CN(Cc1cccs1)c1cc(Cl)nc(-c2ccc(S(C)(=O)=O)cc2)n1` [Compound 30, 6-Chloro-N-methyl-2-(4-(methylsulfonyl)phenyl)-N-(thiophen-2-ylmethyl)pyrimidin-4-amine], for which, in [4] (setting [11]), the half-maximal inhibitory concentration (IC50) is greater than 1000 nM. Moreover, the “inhibition of radioligand binding at all tested receptors, transporters, and binding sites” value in series [2] was “less than 50%”.

On to `[11CH3]Oc1ccc(-c2cc(C(F)(F)F)nn2-c2ccc(S(N)(=O)=O)cc2)cc1` [[^11C]2], for which the brain entry result in [8] (setting [14]) is reported as “Low brain penetration”.

For `[11CH3]S(=O)(=O)c1ccc(C2=C(c3ccccc3)C(=O)OC2)cc1` [[^11C]4, [^11C]rofecoxib], in [8] (in vivo), the brain entry entry is given as “Low brain entry”, the “brain entry (SUV)” value is on record as 0.26 SUV and the “specific signal / specific binding in vivo” value is given as “No specific binding in rat inflammatory models”.

By Ki is commonly meant a dissociation constant, usually derived from enzyme kinetics or from competition with a known ligand. In the case of `[11CH3]Oc1ccc(-c2cncn2-c2ccc(S(N)(=O)=O)cc2)cc1` [[^11C]6], the brain entry result in series [8] (setting [14]) is on record as “Low brain uptake”. Also, in [9] (setting [15]), the Ki is 5 nM.

For the compound `[11CH3]Oc1ccc(-c2c(-c3ccc(S(N)(=O)=O)cc3)[nH]c3ccccc23)cc1` [[^11C]7], in series [8] (setting [14]), the brain entry result is reported as “Low rat brain uptake”.

The logD is lipophilicity at a set pH, counting ionised and neutral species. In turn, `CS(=O)(=O)c1ccc(-c2nc(NCc3cccs3)cc(O[11CH3])n2)cc1` [[^11C]17] registered a logD in [10] of 3.74 ± 0.02.

Consider `Cc1ccc(-c2cc(C(F)(F)F)nn2-c2ccc(S(=O)(=O)Nc3cccc([18F])c3)cc2)cc1` [[^18F]3], for which the Ki in series [9] (setting [15]) is 250 nM.

On to `NS(=O)(=O)c1ccc(-c2c(-c3ccccc3)noc2C[18F])cc1` [[^18F]5], for which, in [8] (in vivo), the brain entry result is given as “Some brain entry”, the defluorination in vivo entry is listed as “Rapidly defluorinated” and the “specific signal / specific binding in vivo” value is reported as “No brain specific signal”. Besides, the Ki in [9] is 2 nM.
